Measurements: PMC4744035, “In Vivo, In Vitro, and In Silico Characterization of Peptoids as Antimicrobial Agents” (PLoS ONE, 2016)
In brackets after ≈: the same amount, converted by molar mass. Like-named read-outs stand apart in the source and are kept apart here. Square brackets hold non-standard residues; d marks the D form. Peptide text beside a SMILES is read from it. Nspe = C[C@H](NCC(=O)O)c1ccccc1; Nlys = NCCCCNCC(=O)O

Key:
[1] = system: E. coli ATCC 35218; type: cell-based
Method: MICs against B. subtilis and E. coli screening bacterial strains were determined using serial dilution in 96-well microtiter plates in accordance with CLSI M7-A6 protocols. Briefly, peptoid solution in cation-adjusted Mueller-Hinton broth was prepared by 2:1 serial dilution with a total volume of 50 µL per well. In experimental wells, 50 µL of bacterial inoculums (1 x 10^6 CFU/mL) were added to the peptoid solutions. Positive controls consisted of 50 µL inoculums added to 50 µL cation-adjusted Mueller-Hinton broth containing no peptoid, while negative controls contained only cation-adjusted Mueller-Hinton broth. […] Experiments were reproducible among three independent replicates, each consisting of two parallel trials.

[2] = system: P. aeruginosa LES400 (MDR); assay: microbe, parasite or virus in culture
Method: (§1) The MICs of test agents were measured using a modified broth micro-dilution method in Difco Mueller Hinton medium, on a panel of bacterial pathogens that were both susceptible and resistant to common antibiotics (S1 File). Briefly, serial dilutions were performed in 0.01% acetic acid containing 0.2% bovine serum albumin at 10-fold the desired final concentration. Ten μL of the 10-fold concentrated test reagents were added to each well of a 96-well polypropylene microtitre plate containing 90 μL of Mueller Hinton media per well. Bacteria were added to the plate from an overnight culture at a final concentration of 2–7 x 10^5 CFU/mL and incubated overnight at 37°C. The MIC is defined as the concentration at which no growth was observed.
(§2) Screening of peptoid antimicrobial activity against a panel of multidrug resistant superbugs was done according to the protocol described in the manuscript. The bacterial strains used in this panel included; P. aeruginosa PAO1 strain H103 [1], P. maltophilia ATCC#13637, S. aureus ATCC#25923 [1], E. faecalis ATCC#29212 [2], and E. cloacae 218R, constitutively expressing Class C chromosomal β-lactamase, were from the Hancock lab strains collection. An MRSA clinical isolate was kindly provided by Anthony Chow (Vancouver General Hospital, Vancouver, Canada). Two Klebsiella pneumoniae and two E. coli clinical isolates expressing extended spectrum β-lactamases (ESBL) were kindly provided by George Zhanel (Health Sciences Centre, Winnipeg, Canada). Vancomycin-resistant clinical isolates of Enterococcus faecalis and E. faecium were obtained from Ana M. Paccagnella (BC Centre for Disease Control, Vancouver, Canada). Three clinical isolates (#9, #198 and #213) of multi-drug resistant P. aeruginosa, were kindly provided by Carlos Kiffer (University of São Paulo, Brazil). […] Three P. aeruginosa clinical isolates of the Liverpool epidemic strain (LES) (H1027, H1030 and LES400) were all kindly provided by Craig Winstanley (University of Liverpool, UK). […] All tested bacterial strains were categorized as biohazard level 2 pathogens.

[3] = system: S. aureus C623 (MRSA); assay: microbe, parasite or virus in culture
Method: as §1, §2

[4] = system: P. aeruginosa H103 (wild type); assay: microbe, parasite or virus in culture
Method: as §1, §2

[5] = system: P. maltophilia ATCC13637; assay: microbe, parasite or virus in culture; details: ATCC13637
Method: as §1, §2

[6] = system: K. pneumonia 61962 (ESBL); assay: microbe, parasite or virus in culture
Method: as §1, §2

[7] = system: E. coli 63103 (ESBL); assay: microbe, parasite or virus in culture
Method: as §1, §2

[8] = system: E. faecalis ATCC29212; assay: microbe, parasite or virus in culture; details: ATCC29212
Method: as §1, §2

[9] = system: E. coli 64771 (ESBL); assay: microbe, parasite or virus in culture
Method: as §1, §2

[10] = system: E. faecium mic80 (VRE); assay: microbe, parasite or virus in culture
Method: as §1, §2

[11] = system: E. faecalis W61950 (VRE); assay: microbe, parasite or virus in culture
Method: as §1, §2

[12] = system: E. faecalis F43559 (VRE); assay: microbe, parasite or virus in culture
Method: as §1, §2

[13] = system: S. aureus ATCC25923; assay: microbe, parasite or virus in culture; details: ATCC25923
Method: as §1, §2

[14] = system: P. aeruginosa 213 (MDR); assay: microbe, parasite or virus in culture
Method: as §1, §2

[15] = system: K. pneumonia 63575 (ESBL); assay: microbe, parasite or virus in culture
Method: as §1, §2

[16] = system: E. faecium T62764 (VRE); assay: microbe, parasite or virus in culture
Method: as §1, §2

[17] = system: P. aeruginosa 9 (MDR); assay: microbe, parasite or virus in culture
Method: as §1, §2

[18] = system: P. aeruginosa H1027 (MDR); assay: microbe, parasite or virus in culture
Method: as §1, §2

[19] = system: P. aeruginosa 198 (MDR); assay: microbe, parasite or virus in culture
Method: as §1, §2

[20] = system: E. cloacae 218R Class C β-lactamase; assay: microbe, parasite or virus in culture; details: 218R Class C β-lactamase
Method: as §1, §2

[21] = system: P. aeruginosa H1030 (MDR); assay: microbe, parasite or virus in culture
Method: as §1, §2

[22] = system: erythrocytes; assay: Hemolytic activity (HD10/HD50); type: cell-based
From the text: Table 1 Characteristics of antimicrobial peptoids, screened for activity against B. subtilis and E. coli bacterial strains. | column: HD10 / HD50

C[C@@H](c1ccccc1)N(CC(N)=O)C(=O)CN(C(=O)CN(CCCCN)C(=O)CN(C(=O)CN(C(=O)CN(CCCCN)C(=O)CN(C(=O)CN(C(=O)CN(CCCCN)C(=O)[C@@H]1CCCN1C(=O)CN(C(=O)CNCCCCN)[C@@H](C)c1ccccc1)[C@@H](C)c1ccccc1)[C@@H](C)c1ccccc1)[C@@H](C)c1ccccc1)[C@@H](C)c1ccccc1)[C@@H](C)c1ccccc1 [Peptoid 1-Pro3, H-NLys-Nspe-L-Pro-(NLys-Nspe-Nspe)3-NH2] (H-[Nlys][Nspe]P[Nlys][Nspe][Nspe][Nlys][Nspe][Nspe][Nlys][Nspe][Nspe]-NH2)
MIC E. coli [1]: 12.5 µM (≈ 21.9 µg/mL) | MIC ([2]; LES400 (MDR)): 8 µg/mL (≈ 4.56 µM) | MIC ([3]; C623): 4 µg/mL (≈ 2.28 µM) | MIC ([4]; H103 (wild type)): 8 µg/mL (≈ 4.56 µM) | MIC [5]: 1 µg/mL (≈ 0.57 µM) | MIC [6]: 32 µg/mL (≈ 18.2 µM) | MIC ([7]; 63103 (ESBL)): 16 µg/mL (≈ 9.12 µM) | MIC [8]: 8 µg/mL (≈ 4.56 µM) | MIC ([9]; 64771 (ESBL)): 8 µg/mL (≈ 4.56 µM) | MIC ([10]; mic80 (VRE)): 4 µg/mL (≈ 2.28 µM) | MIC ([11]; W61950 (VRE)): 16 µg/mL (≈ 9.12 µM) | MIC ([12]; F43559 (VRE)): 8 µg/mL (≈ 4.56 µM) | MIC [13]: 4 µg/mL (≈ 2.28 µM) | MIC ([14]; 213 (MDR)): 8 µg/mL (≈ 4.56 µM) | MIC [15]: 32 µg/mL (≈ 18.2 µM) | MIC ([16]; T62764 (VRE)): 2 µg/mL (≈ 1.14 µM) | MIC ([17]; 9 (MDR)): 128 µg/mL (≈ 72.9 µM) | MIC ([18]; H1027 (MDR)): 2 µg/mL (≈ 1.14 µM) | MIC ([19]; 198 (MDR)): 16 µg/mL (≈ 9.12 µM) | MIC [20]: 16 µg/mL (≈ 9.12 µM) | MIC ([21]; P. aeruginosa H1030 (MDR)): 16 µg/mL (≈ 9.12 µM) | HD10 (hemolytic activity) [22]: 74 | HD50 (hemolytic activity) [22]: > 200

O=C(O)c1cn(C2CC2)c2cc(N3CCNCC3)c(F)cc2c1=O [Ciprofloxacin, reference compound]
MIC ([2]; Pseudomonas aeruginosa): 0.5 µg/mL (≈ 1.51 µM) | MIC ([3]; Staphylococcus aureus, MRSA): 2 µg/mL (≈ 6.04 µM) | MIC ([4]; Pseudomonas aeruginosa): 0.1 µg/mL (≈ 0.302 µM) | MIC ([5]; Stenotrophomonas maltophilia): 0.3 µg/mL (≈ 0.905 µM) | MIC ([6]; Klebsiella pneumoniae): 0.1 µg/mL (≈ 0.302 µM) | MIC ([7]; Escherichia coli): > 128 µg/mL | MIC ([8]; Enterococcus faecalis): 0.3 µg/mL (≈ 0.905 µM) | MIC ([9]; Escherichia coli): > 128 µg/mL | MIC ([10]; Enterococcus faecium, VRE): 32 µg/mL (≈ 96.6 µM) | MIC ([11]; Enterococcus faecalis, VRE): 32 µg/mL (≈ 96.6 µM) | MIC ([12]; Enterococcus faecalis, VRE): 32 µg/mL (≈ 96.6 µM) | MIC ([13]; Staphylococcus aureus): 0.1 µg/mL (≈ 0.302 µM) | MIC ([14]; Pseudomonas aeruginosa): 64 µg/mL (≈ 193 µM) | MIC ([15]; Klebsiella pneumoniae): 64 µg/mL (≈ 193 µM) | MIC ([16]; Enterococcus faecium, VRE): 128 µg/mL (≈ 386 µM) | MIC ([17]; Pseudomonas aeruginosa): 128 µg/mL (≈ 386 µM) | MIC ([18]; Pseudomonas aeruginosa): 1 µg/mL (≈ 3.02 µM) | MIC ([19]; Pseudomonas aeruginosa): 32 µg/mL (≈ 96.6 µM) | MIC ([21]; Pseudomonas aeruginosa): 0.3 µg/mL (≈ 0.905 µM)
